The values that follow are results of earlier work, collected in patent US10045978B2 (AB SCIENCE, priority 2010, dated 2018).

The test system of data set [1] is patients with WHO-defined systemic mastocytosis (SM). The note with it: cited from earlier work.
Data set [2] concerns mastocytosis patients. The settings on record: in vivo; cited from earlier work.
Data set [3] has as its system indolent mastocytosis patients. The note with it: cited from earlier work.
Data set [4] deals with patients. The settings on record: of patients; cited from earlier work.
Data set [5] has as its system mast cells carrying the D816V c-Kit mutation. The settings on record: in vitro; cited from earlier work.
The mark [6] stands for this setting: entire evaluable study population (N=108).
Where [7] appears, read: patients with indolent SM (N=22).

Where two headings read alike, the source gives them in different places.

As for `Nc1nc(Cl)nc2c1ncn2[C@H]1C[C@H](O)[C@@H](CO)O1` [Cladribine], in data set [1] (setting [6]), the major response rate is given as 37% and the overall response rate is given as 55%. For the same molecule, in data set [1] (setting [7]), the overall response rate is listed as 56%. Further, in data set [2], the “cases with reduced mast cell tumor burden” value was “up to 50%”.
As to `NC(=O)NO` [hydroxyurea], in data set [1] (setting [6]), the major response rate is listed as 0% and the overall response rate is on record as 19%. Further, the overall response rate in data set [1] (setting [7]) was 0%.
Take `Cc1ccc(NC(=O)c2ccc(CN3CCN(C)CC3)cc2)cc1Nc1nccc(-c2cccnc2)n1` [imatinib]: the “patients reporting symptomatic improvements” value in data set [3] was 6/11. Moreover, the overall response rate in data set [1] (c-Kit D816V positive SM patients) was 17%; in data set [1] (setting [6]), 18%; in data set [1] (setting [7]), 14%. Besides, in data set [1] (setting [6]), the major response rate is 9%. Besides, the “grade 4 neutropaenia” value in data set [4] is given as 5%. For the same molecule, in data set [5], the “response of mast cells carrying the D816V c-Kit mutation” value was “resistant”.
For the molecule interferon-alpha, the major response rate in data set [1] (setting [6]) was 18%. Further, the figures for the overall response rate in data set [1] (setting [6]) and in data set [1] (setting [7]) were 53% and 60%, respectively.
